How the values were obtained:
[1] = biological target: type II collagen promoter (COL2A1-Gaussia luciferase) in primary human chondrocytes; test: HuCol2gLuc 3D aggregate type II collagen promoter-driven Gaussia luciferase assay; type: cell-based; conditions: HuCol2gLuc
Protocol: Chondrogenic Culture. Human COL2A1-GLuc or uninfected cells were thawed and seeded in growth media on synoviocyte matrix at 6,000 cells/cm^2 and expanded to 90-100% confluence in physioxia. Cells were trypsinized (0.25% Trypsin/EDTA; Corning), resuspended in growth media (for monolayer culture) or chondrogenic differentiation media for 3D aggregates (93.24% High-Glucose DMEM (Gibco), 1% dexamethasone 10^−5M (Sigma), 1% ITS+premix (Becton-Dickinson), 1% Glutamax (Hyclone), 1% 100 mM Sodium Pyruvate (Hyclone), 1% MEM Non-Essential Amino Acids (Hyclone), 0.26% L-Ascorbic Acid Phosphate 50 mM (Wako), 0.5% Fungizone (Life Technologies) with TGF-β1 (Peprotech) and seeded as described below.
Generation and Maintenance of 3D aggregates. To generate 3D aggregates, cells were seeded at 50,000 cells per well (in 96-well cell repellent u-bottom plates, GreinerBio) and then centrifuged at 500 RCF, 5 min. For the initial drug screen, aggregates were cultured in basal chondrogenic media (1 ng/ml TGF-β1) alone, with DMSO (vehicle control) or 5 μM of the drug compounds from the NCI library (Natural Products V, NCI). For candidate validation and subsequent studies aggregates were cultured in basal chondrogenic media (10 ng/ml TGF-β1) alone, with DMSO (vehicle control) or compounds as indicated in the results. Aggregates were cultured for three weeks in physioxic conditions, culture medium was sampled and replaced three times a week with fresh medium. An OT-2 (Opentrons) python coded robotic pipette, programmed at an aspiration height of 2 mm from the bottom of the wells and aspiration rate of 40 μl/s was utilized for addition of compound, cell feeding, and media sampling for luciferase assay. After three weeks, cell aggregates were either fixed in neutral buffered formalin for histology or medium removed and aggregates frozen dry (−20° C.) for biochemical assays.
(§1) Luciferase Assay. Conditioned culture medium sampled from aggregates in 96-wells (20 μL/well) was assessed using a stabilized Gaussia Luciferase buffer mix (50 µl/well) for a final concentration of 0.09 M MES, 0.15M Ascorbic Acid, and 4.2 μM Coelenterazine in white 96-well plates. Luminescence was measured in a plate reader (25° C., relative light units (RLU), En Vision plate reader). An OT-2 (Opentrons) python coded robotic pipette was utilized for luciferase buffer addition to white plates (GreinerBio).

[2] = biological target: type II collagen promoter (COL2A1-GLuc) in primary rabbit chondrocytes; test: COL2A1-GLuc primary rabbit chondrocyte 3D aggregate luciferase assay; type: cell-based; conditions: 0-10 ng/ml
Protocol: Chondrogenic Culture. Rabbit COL2A1-GLuc were thawed and seeded in growth media at 6000 cells/cm^2 and expanded to 90-100% confluence in physioxia. Cells were trypsinized (0.25% Trypsin/EDTA; Corning), resuspended in basal chondrogenic media (93.24% High-Glucose DMEM (Gibco), 1% dexamethasone 10^−5 M (Sigma), 1% ITS+premix (Becton-Dickinson), 1% Glutamax (Hyclone), 1% 100 mM Sodium Pyruvate (Hyclone), 1% MEM Non-Essential Amino Acids (Hyclone), 0.26% L-Ascorbic Acid Phosphate 50 mM (Wako), 0.5% Fungizone (Life Technologies) with TGF-β1 (Peprotech) and seeded as described below.
Generation and Maintenance of 3D Aggregates. To generate 3D aggregates, cells were seeded at 50,000 cells per well (in 96-well cell repellent u-bottom plates, GreinerBio) and then centrifuged at 500 RCF, 5 min. For the TGF-β1 dose response studies, that serve as positive controls for the reporter cells, aggregates were cultured in basal chondrogenic media and different concentrations of TGF-β1 ranging from 0-10 ng/ml. For the DoE studies, aggregates were cultured in basal chondrogenic media (1 ng/ml TGF-β1) as a control or basal media supplemented with vitamins and minerals (Table 3 and Table 5). Plates were cultured for three weeks in physioxia, media was sampled and replaced three times a week with respective medium. An OT-2 (Opentrons) python coded robotic pipette, programmed at an aspiration height of 2 mm from the bottom of the wells and aspiration rate of 40 μl/s was utilized for media preparation, cell feeding, and media sampling for luciferase assay. After three weeks, cell aggregates were either fixed in neutral buffered formalin for histology or medium removed and aggregates frozen dry (−20° C.) for biochemical assays.
as §1, with “Cell” for “Conditioned”, “the seeded” for “aggregates in”, “at” for “mix (50 µl/well) for”, “units,” for “units (RLU),”

[3] = biological target: PRG4 (lubricin) promoter in primary human chondrocytes; test: HuPRG4gLuc aggregate lubricin promoter-driven Gaussia luciferase assay, TGFβ1 dose response; type: cell-based; conditions: 0-40 ng/mL
Protocol: HuPRG4gLuc reporter cell aggregate culture and TGFβ1 dose response. HuPRG4gLuc reporter chondrocytes were thawed from frozen stocks and seeded onto synoviocyte derived matrix coated flasks to expand to confluence (˜5 days, 37° C., 5% CO2 and 5% O2). Upon confluence, cells were trypsinized (0.25% Trypsin/EDTA, 5 min, 37° C.), neutralized with growth media (DMEM/F12 (Gibco) supplemented with 10% FBS (mesenchymal stromal cell selected and 1% penicillin-streptomycin (Hyclone)), then centrifuged (5 min, 500 RCF, room temperature [RT]). Cells were then resuspended in defined chondrogenic media (DMEM-HG 93.24% (Lonza), 1% 10^−5 M dexamethasone (Sigma), 1% ITS+premix (Becton-Dickinson), 1% Glutamax (Hyclone), 1% 100 mM Sodium Pyruvate (Hyclone), 1% MEM Non-Essential Amino Acids (Hyclone), 0.26% 50 mM L-Ascorbic Acid Phosphate (Wako), 0.5% Fungizone (Life Technologies)), and seeded (50,000 cells/well) onto a non-adherent 96-well plate (Greiner Bio), then centrifuged to form cell aggregates (5 min, 500 RCF, RT). […] Media containing the secreted Gaussia luciferase was sampled twice a week for luminescence (section 2.3). […]
Luciferase assessment. As previously described, during the 22-day culture period, luminescence was assessed twice a week. […] Luminescence was read on a plate reader (PerkinElmer EnVision 2104 Multilabel Reader.

HuPRG4gLuc aggregates = test: Biochemical assays on HuPRG4gLuc aggregates; type: cell-based, human; conditions: day 22
Protocol: Biochemical assays. As previously described, frozen samples were digested in papain (0.025 mg/mL papain in 50 mM sodium phosphate, 2 mM EDTA, 2 mM cysteine) overnight. Hoechst dye was used to quantify the DNA content of the digest, with calf thymus DNA (Sigma) as the standard. Samples were read on a plate reader (Ex365, Em460 nm, SpectraMax iD5, Molecular Devices). Dimethylmethylene blue (5 ml of 3.2 mg/mL DMMB dissolved in 200 proof ethanol added to 1L of 40 mM glycine, 40 mM NaCl at pH 1.5) colorimetric assay was used to quantify GAG content of the digest with absorbance readings at 525 nm and 595 nm (correction). Hydroxyproline (HDP) content was measured for total collagen quantification. Papain digested samples were acid hydrolyzed overnight (10:1 vol/vol, 6M HCl, 110° C.) and then dried overnight (70° C.). Copper sulfate (0.15M) and NaOH (2.5M) were added and incubated (50° C., 5 minutes). Oxidation occurred through 10-minute incubation with hydrogen peroxide (6% H2O2, 50° C.). Sulfuric acid was added (1.5M H2SO4) prior to reaction with Ehrlich's reagent (10% w/v 4-dimethylamino benzaldehyde in 60% isopropanol, 26% perchloric acid, 14% MΩ water) for a final incubation (70° C., 16 minutes). Absorbance was read at 505 nm (SpectraMax iD5, Molecular Devices) with hydroxyproline standard curve generated using hydroxyproline (Sigma). […]

[4] = system: cartilage (destabilized meniscus model); conditions: cited from earlier work
[5] = system: NF-κB and JAK2/STAT3 signaling; conditions: monolayer culture; cited from earlier work

“TGFβ1: transforming growth factor beta 1, known stimulator of chondrogenesis, type II collagen and lubricin [reference compound]” gave an EC50 luminescence ([1]; donor 2, day 7) of 0.142 ng/mL, an EC50 luminescence ([1]; donor 2, day 21) of 1.868 ng/mL and an EC50 luminescence ([1]; first donor, day 8, 0-100 ng/ml) of 0.780 ng/mL. For the same molecule, the EC50 luminescence ([1]; first donor, day 17) was 2.702 ng/mL, the EC50 luminescence ([2]; Day 7) was 0.17 ng/mL and the EC50 luminescence ([2]; Day 21) was 0.10 ng/mL. For the same molecule, the EC50 luminescence ([3]; day 10) was 2.5 ng/mL, the EC50 luminescence ([3]; day 22) was 4.2 ng/mL and the “EC50 DNA” value (HuPRG4gLuc aggregates) was 2.8 ng/mL. For the same molecule, the “EC50 GAG/DNA” value (HuPRG4gLuc aggregates) was 4.8 ng/mL.
For NCCc1ccc(O)c(O)c1 [dopamine], the “decrease in OARSI score” value [4] is listed as 50% and the “NF-κB and JAK2/STAT3 signaling” value [5] is listed as “inhibition of NF-κB and JAK2/STAT3 signaling”.

Source: patent US20250241906A1, “ANABOLIC DRUGS STIMULATING TYPE II COLLAGEN PRODUCTION FROM CHONDROCYTES OR THEIR PROGENITORS” (UNIVERSITY OF CENTRAL FLORIDA RESEARCH FOUNDATION, INC., priority 2022, published 2025)
